Reference: paper PMC9814205, “Targeting undruggable carbohydrate recognition sites through focused fragment library design” (Communications Chemistry, 2022)
Entries after “also recorded” stand apart in the source; their conditions may differ.

Tests used:
Assay type in all cases: binding
5FW LecA (PA-IL) = molecular target: T1, 5FW LecA (PA-IL) (Pseudomonas aeruginosa, UniProt Q05097); assay: PrOF NMR with 5-fluorotryptophan-labeled LecA
T1 construct: made in house
Protocol: PrOF NMR was performed as reported previously. Briefly, 150 µM 5FW LecA was recorded alone and in the presence of DMSO or 2–4 mM compounds in TBS/Ca^2+ buffer. The difference in chemical shift perturbations of W42 in 5FW LecA free vs bound forms was followed to determine Kd values of compounds. The Kd values were calculated according to the one-site-binding model in Origin(Pro) 2020b (OriginLab Corp., USA) from two or three independent titrations. Ligand efficiency values were calculated according to Eq. (1) for a temperature of 310 K.

LecA [1] = molecular target: T2, LecA (Pseudomonas aeruginosa, UniProt Q05097); assay: Competitive fluorescence polarization (FP) assay; details: for Inhibition in FP: compared to MeGal at 10 mM (16 h); for inhibition at 10000 µM: read-out: Inhibition in FP, compared to MeGal at 10 mM (16 h)
T2 construct: made in house
T2 sequence (Q05097 whole entry): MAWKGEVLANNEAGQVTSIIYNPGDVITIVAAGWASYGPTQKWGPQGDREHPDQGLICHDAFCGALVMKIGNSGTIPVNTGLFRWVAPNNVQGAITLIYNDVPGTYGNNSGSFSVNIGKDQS
Protocol: The FP assay was performed in a black 384-well plate (Greiner Bio-One, Germany, 781900) with the final volume of 20 µL as described previously. Briefly, 10 µL of a sample solution series (10–0.078 mM) in TBS buffer containing 10 mM Ca^2+ (TBS/Ca^2+-buffer) and 20% DMSO were added in technical triplicates to 10 µL LecA (40 µM) preincubated with a galactose-based Cy5 conjugate[68] (20 nM) in TBS/Ca^2+-buffer. […] The plate was sealed (EASYseal, Greiner Bio-One, 676,001), centrifuged (1 min, 1500 rpm, 25 °C) and incubated in a humidity chamber for 16 h. The fluorescence was measured with an excitation 590 nm and emission 675 nm filter[68] on a PheraStar FS plate reader (BMG Labtech GmbH, Germany). The blank signal of TBS/Ca^2+-buffer containing 10% DMSO was subtracted and the compounds were analyzed with the MARS Data Analysis Software (BMG Labtech GmbH Germany) using the four-parameter variable slope model. The top and bottom plateaus were defined according to the positive controls. The graphs were visualized using Graphpad Prism 5. The percentage (%) of inhibition was calculated at the highest concentration compared with 10 mM MeGal set to 100%.

15N LecA = molecular target: T3, 15N LecA (Pseudomonas aeruginosa, UniProt Q05097); assay: 1H-15N TROSY NMR with 15N LecA; details: 4 mM analogs of 1, 1 mM marketed hydroxamates
T3 construct: made in house
T3 sequence (Q05097 whole entry): as above
Protocol: (§1) The ^1H-^15N TROSY pulse sequence trosyf3gpphsi19 with 128 increments and 32 scans per increment was applied for 0.15 mM ^15N LecA and 0.07 mM LecB in HBS/Ca^2+ buffer (20 mM HEPES pH 7.4, 150 mM NaCl, 10 mM CaCl2, 10% D2O and 100 µM sodium trimethylsilylpropanesulfonate (DSS) as internal reference) at 310 K. The ^1H-^15N HSQC pulse sequence hsqcf3gpph19 with 128 increments and 8 scans per increment was applied for 0.1 mM ^15N DC-SIGN and Langerin CRD in HBS/Ca^2+ buffer at 298 K. For screening of 650 non-fluorinated fragments of the general library against ^15N LecA, a mix of 10 compounds at 1 mM each was combined with 0.15 mM ^15N LecA in HBS/Ca^2+ buffer (20 mM HEPES pH 7.4, 150 mM NaCl, 10 mM CaCl2, 10% D2O and 100 µM sodium trimethylsilylpropanesulfonate (DSS) as internal reference, whereas the fragments with the MBP scaffolds were validated separately at 1 mM. Similarly, 9 nonfluorinated fragments from the MBP library were screened against ^15N-labeled DC-SIGN, LecA and LecB. To validate the fragment binding to proteins, we recorded ^1H-^15N HSQC and TROSY NMR of proteins in the presence of DMSO as negative control and 2 mM fragments in HBS/Ca^2+ buffer. Natural ligands were used as positive controls at 1 mM MeGal, MeFuc and 30 mM D-mannose to LecA/LecB and DC-SIGN CRD/Langerin CRD, respectively. Titration experiments with ^15N-labeled DC-SIGN CRD or LecB were recorded in HBS/Ca^2+ buffer with 30 mM CaCl2 and 0.25 to 4–8 mM malonic acid derivatives. The Kd values were calculated according to the one-site-binding model in Origin(Pro) 2020b (OriginLab Corp., USA). Ligand efficiency calculations were done according to Eq. (1) for a temperature of 298 K and 310 K for DC-SIGN CRD and LecB, respectively.1 LE=RTlnKd/HA, with the temperature T [K], the gas constant R [kcal mol^−1 K^−1], and the number of non-hydrogen atoms HA[56].
(§2) All data were processed with NMRpipe[65] and analyzed with CcpNmr analysis. For data analysis, the protein fingerprint of ^15N DC-SIGN (Table S7) or Langerin CRD was assigned as reported previously. The ^1H-^15N TROSY resonances of ^15N LecA and ^15N LecB were indexed with IDs due to a lack of protein backbone resonance assignment (Tables S8-S9). Next, resonance IDs from protein spectra were transferred to the spectra obtained in the presence of compounds in order to compare the changes in chemical shift perturbations for the fast exchange peaks. The changes in chemical shift perturbations (CSPs) were calculated according to Eq. (2):2 △δ=1/2△δH2+α△δN^2 in which δ is the difference in chemical shift (in ppm) and α is an empirical weighting factor of 0.14 for all amino acid backbone resonances. The threshold value was set based on three independent measurements of reference spectra to 0.01 ppm for LecA, LecB, DC-SIGN CRD and Langerin CRD.

LecA [2] = molecular target: T2, LecA; assay: SPR with immobilized LecA; details: compounds at 0.2 and 1 mM
Protocol: All experiments were performed on a BIACORE X100 instrument (GE Healthcare) at 25 °C in phosphate-buffered saline (10 mM phosphate buffer pH 7.4, 2.7 mM KCl, 137 mM NaCl, 0.05% Tween-20, 100 µM CaCl2, 5% DMSO). LecA was immobilized onto a CM7 chip (BIACORE) following standard amine coupling procedures. The CM7 chip was activated by three injections of a NHS/EDC mixture with a contact time of 540 s at a flow rate of 10 µL min^−1 until the response exceeded 800 RU, followed by multiple injections of LecA dissolved in 10 mM sodium acetate pH 4.5 (100 µg/mL) onto channel 2 (contact time of 540 s at a flow rate of 10 µL min^−1). A minimum of 10,000 RU of LecA was captured onto the chip. Initial binding screens were performed with the injections of 0.2 and 1 mM of each hydroxamate (association 30 s, dissociation 60 s, 30 µL min^−1 flow rate), to identify the initial binders eliciting dose-response behaviors. Injection of the positive control (0.1 mM 4-Nitrophenyl-β-D-galactoside) was included after every forth injection cycle to monitor the activity of immobilized LecA throughout the binding screen experiments. All data evaluation was performed using BIACORE X100 evaluation software (v.2.0).

LecA [3] = molecular target: T2, LecA; assay: Competitive 19F T2-filtered NMR with reporter 5; details: 0.1 mM 5, 10 mM CaCl2, 3 mM competitor
Protocol: The analogs of 1 (5) and 58 (61) were used as fluorinated spy molecules in ^19F T2-filtered NMR experiments. Two samples containing 0.1 mM 5 or 61 alone or a 10 µM protein in TBS/EDTA buffer followed by addition of 10 mM CaCl2 and the carbohydrates: 1 mM MeGal (LecA), 1 mM MeFuc (LecB/BambL) and 30 mM D-mannose (DC-SIGN/Langerin). Similarly, 0.1 mM 5 was used to prioritize hydroxamate derivatives, where 3 mM analogs of 1 were added to the samples instead of the carbohydrates. The ^19F and ^19F T2-filtered spectra were recorded with 64 scans, a spectral width of 5 ppm, a transmitter offset at −155.5 ppm (5) and −155.5 ppm (61), the acquisition time of 0.8 s, 2 s relaxation time applying a T2-filter of 384 ms. All spectra were analyzed as described above.

DC-SIGN CRD (CD209) = molecular target: T4, DC-SIGN CRD (CD209) (Homo sapiens, UniProt Q9NNX6); assay: 1H-15N HSQC NMR with 15N DC-SIGN CRD
T4 construct: the carbohydrate recognition domain (CRD) of DC-SIGN in ^1H-^15N HSQC/TROSY NMR experiments; made in house
T4 sequence (Q9NNX6 263-378 limits assumed): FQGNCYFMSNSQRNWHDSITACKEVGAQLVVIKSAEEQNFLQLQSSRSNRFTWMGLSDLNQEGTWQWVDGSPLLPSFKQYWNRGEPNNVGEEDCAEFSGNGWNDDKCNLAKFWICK
Protocol: as §1, §2

T1 sequence (Q05097 2-122): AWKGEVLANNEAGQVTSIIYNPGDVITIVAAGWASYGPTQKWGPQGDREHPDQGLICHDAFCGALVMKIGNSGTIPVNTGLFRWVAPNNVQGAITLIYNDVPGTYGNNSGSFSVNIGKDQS

SMILES | Inhibition in FP (LecA [1]) | inhibition at 10000 µM (LecA [1]) | binding to 15N LecA in TROSY NMR (15N LecA) | other results
Cc1ccc(CCCC(=O)NO)cc1 [compound 36] | 35 ± 3% | 27 to 39% | slightly improved binding | Kd (5FW LecA (PA-IL)): 3600 ± 2200 µM; LE (5FW LecA (PA-IL); ligand efficiency calculated from Kd for LecA, 310 K): 0.25 kcal mol^−1 HA^−1
O=C(CCCc1cccs1)NO [compound 37] | – | 25 ± 3% | – | –
O=C(CCCc1ccc(Br)cc1)NO [compound 38] | – | 25 ± 1% | – | –
O=C(CCCc1ccc([N+](=O)[O-])cc1)NO [compound 39] | 4 ± 2% | – | – | –
COc1ccc(CCCC(=O)NO)cc1 [compound 40] | 27 ± 1% | 27 to 39% | – | –
O=C(CCCc1ccc(O)cc1)NO [compound 41] | 39 ± 1% | 27 to 39% | – | –
O=C(CC=Cc1ccccc1)NO [compound 42] | – | 13 ± 3% | not tolerated | –
O=C(COCCc1ccccc1)NO [compound 43] | – | 8 ± 3% | not tolerated | –
O=C(COCCCc1ccccc1)NO [compound 44] | – | 17 ± 2% | – | –
O=C(CCCCCCC(=O)Nc1ccccc1)NO [compound 47, reference compound] | – | – | not tolerated; also recorded: none of the marketed metalloproteinase inhibitors (47, 49, 50) bound; also recorded: no binding | Efficiency in SPR (normalized binding response) (LecA [2]): 3.8%; competition of reporter 5 from LecA (recovery of 19F peak) (LecA [3]): did not displace
O=C(O)C(F)(CC1CCC1)C(=O)O [compound 61] | – | – | – | binding to 5FW LecA (perturbation of W42) in PrOF NMR (5FW LecA (PA-IL); 2 mM compound): perturbed W42; also recorded: strongest perturbation of W42; W42 [ppm] (5FW LecA (PA-IL); 19F resonance of 0.15 mM 5FW LecA with 2 mM compound, DMSO 120.50): 120.32 ppm; W2 [ppm] (5FW LecA (PA-IL); 19F resonance of 0.15 mM 5FW LecA with 2 mM compound, DMSO 121.43): 121.46 ppm; W33 [ppm] (5FW LecA (PA-IL); 19F resonance of 0.15 mM 5FW LecA with 2 mM compound, DMSO 121.67): 121.73 ppm; W84 [ppm] (5FW LecA (PA-IL); 19F resonance of 0.15 mM 5FW LecA with 2 mM compound, DMSO 123.50): 123.52 ppm; Kd (DC-SIGN CRD (CD209); 15N DC-SIGN CRD, titration, one-site binding model, 30 mM CaCl2): 1900 µM; LE (DC-SIGN CRD (CD209); ligand efficiency calculated from Kd for DC-SIGN CRD, 298 K): 0.28 kcal mol^−1 HA^−1
